According to paper PMC11850616, “Nanomolar inhibitor of the galectin-8 N-terminal domain binds via a non-canonical cation-π interaction” (Communications Chemistry, 2025):
Like-named read-outs stand apart in the source and are kept apart here.

Columns and labels:
[1] = target: T1, Gal-8N (galectin-8 N-terminal domain) (Homo sapiens, UniProt O00214); assay: competitive fluorescence polarisation assay, Gal-8N; format: binding; parameters: key to Kd (Galectin-8N): n. s.: n.s. = non-soluble at tested concentration; n. b.: n.b. = non-binding up to the highest tested concentration of 1500 µM; conditions: competitive FP
T1 construct: made in house
T1 sequence (O00214 19-152 limits assumed): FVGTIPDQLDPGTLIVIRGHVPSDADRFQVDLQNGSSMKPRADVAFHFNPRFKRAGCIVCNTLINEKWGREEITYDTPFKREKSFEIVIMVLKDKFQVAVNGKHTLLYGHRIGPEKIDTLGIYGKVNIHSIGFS
Experimental: (§1) Human galectins-1, -3, and -8N were expressed and purified as described previously[8],[23],[24]. Competitive fluorescence polarization assays were performed with a PHERAstar FS plate reader with software PHERAstar Mars version 2.10 R3 (BMG, Offenburg, Germany) and Tecan Spark multimode microplate reader (Tecan Trading AG, Switzerland), where a fluorescence anisotropy of fluorescent-tagged probes was measured by excitation at 485 nm and emission at 520 nm. Experiments were performed at 20 °C with Gal-1 at 0.5 µM, Gal-3 at 0.2 µM, and Gal-8N at 0.4 µM. Fluorescent probes used for experiments were 3,3′-dideoxy-3-[4-(fluorescein-5-yl-carbonylaminomethyl)-1H-1,2,3-triazol-1-yl]-3′-(3,5-di-methoxybenzamido)-1,1′-sulfanediyl-di-β-D-galactopyranoside at 0.02 µM for Gal-1 and -3 and 2-(fluorescein-5-yl-carbonylamino)ethyl β-D-galactopyranosyl(1-4)-2-acetamido-2-deoxy-β-D-glucopyranosyl(1–3)-β-D-galactopyranosyl(1–4)-β-D-glucopyranoside at 0.1 µM for Gal-8N in each well. Compounds were first dissolved in pure DMSO at 20 mM concentration and later diluted in 5% DMSO in PBS solution to 5-7 different concentrations. Each concentration was tested in duplicate. The highest inhibitor concentrations tested were 1.5 mM. The average values of Kd and SEM (standard error mean) were calculated from 4 to 8 duplicate measurements, showing 10–90% inhibition.

Gal-3 = target: T2, Gal-3 (Homo sapiens, UniProt P17931); assay: competitive fluorescence polarisation assay, Gal-3; format: binding; parameters: key to Kd (Galectin-3): n. s.: n.s. = non-soluble at tested concentration; n. b.: n.b. = non-binding up to the highest tested concentration of 1500 µM; conditions: for Kd (Galectin-3) / Kd: competitive FP; for Gal-3 selectivity ratio Kd (Gal-3)/Kd (Gal-8N): ratio of FP Kd values
T2 construct: made in house
T2 sequence (P17931 whole entry): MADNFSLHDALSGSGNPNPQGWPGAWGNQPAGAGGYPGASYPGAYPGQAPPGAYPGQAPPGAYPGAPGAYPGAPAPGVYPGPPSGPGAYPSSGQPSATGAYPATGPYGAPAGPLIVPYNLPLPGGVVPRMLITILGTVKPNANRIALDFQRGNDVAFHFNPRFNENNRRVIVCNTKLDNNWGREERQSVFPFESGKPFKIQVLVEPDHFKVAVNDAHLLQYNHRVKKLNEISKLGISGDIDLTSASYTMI
Experimental: as §1

Gal-8N = target: T3, Gal-8N (Homo sapiens, UniProt O00214); assay: ligand efficiency (LE) and ligand-lipophilicity efficiency (LLE) calculations; conditions: for LLE: from Gal-8N Kd and clogP; for LE: from Gal-8N Kd and number of non-hydrogen atoms
T3 construct: consisting of residues 4-158 was produced by Lund Protein Production Platform; made in house; host or cells: E. coli TUNER(DE3)
T3 sequence (O00214 4-158): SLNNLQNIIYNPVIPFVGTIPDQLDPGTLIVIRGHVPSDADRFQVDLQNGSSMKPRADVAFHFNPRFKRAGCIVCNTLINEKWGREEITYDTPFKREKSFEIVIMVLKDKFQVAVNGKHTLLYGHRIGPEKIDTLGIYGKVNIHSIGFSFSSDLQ

Gal-1 = target: T4, Gal-1 (Homo sapiens, UniProt P09382); assay: competitive fluorescence polarisation assay, Gal-1; format: binding; conditions: for Kd: competitive FP, mean ± SEM of n = 4 to 8, 20 °C; for Gal-1 selectivity ratio Kd (Gal-1)/Kd (Gal-8N): ratio of FP Kd values
T4 construct: made in house
T4 sequence (P09382 whole entry): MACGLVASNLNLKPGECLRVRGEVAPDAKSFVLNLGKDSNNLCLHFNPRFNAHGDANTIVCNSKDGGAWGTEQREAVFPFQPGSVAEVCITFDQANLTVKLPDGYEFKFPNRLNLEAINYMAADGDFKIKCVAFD
Experimental: as §1

Gal-8C = target: T5, Gal-8C (Homo sapiens, UniProt O00214); assay: competitive fluorescence polarisation assay, Gal-8C; format: binding; conditions: for Kd: competitive FP, mean ± SEM of n = 4 to 8; for Gal-8C selectivity ratio Kd (Gal-8C)/Kd (Gal-8N): ratio of FP Kd values
T5 construct: than to the C-terminal domain (Gal-8C)
T5 sequence (O00214 187-317 limits assumed): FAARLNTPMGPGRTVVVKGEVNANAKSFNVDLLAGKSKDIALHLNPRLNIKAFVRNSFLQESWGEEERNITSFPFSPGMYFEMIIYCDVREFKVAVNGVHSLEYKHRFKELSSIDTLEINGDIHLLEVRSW

[2] = ester compounds, highest tested concentration 1500 µM
[3] = ester compounds, highest tested concentration 1500 µM, read-out: Kd (Galectin-8N)
[4] = ester compounds, highest tested concentration 1500 µM, read-out: Kd (Galectin-3)
[5] = mean ± SEM of n = 4 to 8, 20 °C, read-out: Kd Gal-8N
[6] = mean ± SEM of n = 4 to 8, 20 °C, read-out: Kd Gal-3

Compound | Kd (Galectin-8N) [1, 2] | Kd (Galectin-3) (Gal-3; [2]) | Kd [1, 3] [µM] | Kd (Gal-3; [4]) [µM] | LLE (Gal-8N) | LE (Gal-8N) | Kd (Gal-1) [µM] | Gal-1 selectivity ratio Kd (Gal-1)/Kd (Gal-8N) (Gal-1) | Kd [1, 5] [µM] | Kd (Gal-3; [6]) [µM] | Gal-3 selectivity ratio Kd (Gal-3)/Kd (Gal-8N) (Gal-3) | Kd (Gal-8C) [µM] | Gal-8C selectivity ratio Kd (Gal-8C)/Kd (Gal-8N) (Gal-8C)
COC(=O)c1ccc2nc(CO[C@H]3[C@@H](O)[C@@H](CO)O[C@H](Sc4ccc(Cl)c(Cl)c4)[C@@H]3OCc3ccccc3)n(C)c2c1 [Compound 7a] | n. s. | n. s. | – | – | – | – | – | – | – | – | – | – | –
COC(=O)c1ccc2nc(CO[C@H]3[C@@H](O)[C@@H](CO)O[C@H](Sc4ccc(Cl)c(Cl)c4)[C@@H]3OCc3cccc(C)c3)n(C)c2c1 [Compound 7b] | n. s. | n. s. | – | – | – | – | – | – | – | – | – | – | –
COC(=O)c1ccc2nc(CO[C@H]3[C@@H](O)[C@@H](CO)O[C@H](Sc4ccc(Cl)c(Cl)c4)[C@@H]3OCc3ccc(C)cc3)n(C)c2c1 [Compound 7c] | n. s. | n. s. | – | – | – | – | – | – | – | – | – | – | –
COC(=O)c1ccc2nc(CO[C@H]3[C@@H](O)[C@@H](CO)O[C@H](Sc4ccc(Cl)c(Cl)c4)[C@@H]3OCc3ccc(F)cc3)n(C)c2c1 [Compound 7d] | n. s. | n. s. | – | – | – | – | – | – | – | – | – | – | –
COC(=O)c1ccc2nc(CO[C@H]3[C@@H](O)[C@@H](CO)O[C@H](Sc4ccc(Cl)c(Cl)c4)[C@@H]3OCc3ccc(Cl)c(Cl)c3)n(C)c2c1 [Compound 7e] | – | – | > 1500 | > 1500 | – | – | – | – | – | – | – | – | –
COC(=O)c1ccc2nc(CO[C@H]3[C@@H](O)[C@@H](CO)O[C@H](Sc4ccc(Cl)c(Cl)c4)[C@@H]3OCc3cccc(Cl)c3)n(C)c2c1 [Compound 7f] | – | – | > 1500 | > 1500 | – | – | – | – | – | – | – | – | –
Cn1c(CO[C@H]2[C@@H](O)[C@@H](CO)O[C@H](Sc3ccc(Cl)c(Cl)c3)[C@@H]2OCc2ccccc2)nc2ccc(C(=O)O)cc21 [Compound 8a] | – | – | – | – | 0.382 | 0.195 (kcal/mol)/heavy atom | 14 ± 0.82 | 9.4 | 1.5 ± 0.13 | 3.7 ± 0.5 | 2.5 | 320 ± 12 | 213
Cc1cccc(CO[C@@H]2[C@@H](OCc3nc4ccc(C(=O)O)cc4n3C)[C@@H](O)[C@@H](CO)O[C@@H]2Sc2ccc(Cl)c(Cl)c2)c1 [Compound 8b] | – | – | – | – | -0.257 | 0.185 (kcal/mol)/heavy atom | 19 ± 0.67 | 9 | 2.1 ± 0.1 | 8.2 ± 0.7 | 3.9 | 303 ± 19 | 144
Cc1ccc(CO[C@@H]2[C@@H](OCc3nc4ccc(C(=O)O)cc4n3C)[C@@H](O)[C@@H](CO)O[C@@H]2Sc2ccc(Cl)c(Cl)c2)cc1 [Compound 8c] | – | – | – | – | -0.259 | 0.185 (kcal/mol)/heavy atom | 16 ± 0.75 | 7.6 | 2.1 ± 0.15 | 5.9 ± 0.6 | 2.8 | 256 ± 24 | 122
Cn1c(CO[C@H]2[C@@H](O)[C@@H](CO)O[C@H](Sc3ccc(Cl)c(Cl)c3)[C@@H]2OCc2ccc(F)cc2)nc2ccc(C(=O)O)cc21 [Compound 8d] | – | – | – | – | 0.203 | 0.189 (kcal/mol)/heavy atom | 14 ± 1.2 | 8.8 | 1.6 ± 0.06 | 4.2 ± 0.6 | 2.6 | 301 ± 28 | 188
Cn1c(CO[C@H]2[C@@H](O)[C@@H](CO)O[C@H](Sc3ccc(Cl)c(Cl)c3)[C@@H]2OCc2ccc(Cl)c(Cl)c2)nc2ccc(C(=O)O)cc21 [Compound 8e] | – | – | – | – | -1.38 | 0.171 (kcal/mol)/heavy atom | 20 ± 0.84 | 4.7 | 4.3 ± 0.4 | 12 ± 3 | 2.8 | 577 ± 4 | 134
Cn1c(CO[C@H]2[C@@H](O)[C@@H](CO)O[C@H](Sc3ccc(Cl)c(Cl)c3)[C@@H]2OCc2cccc(Cl)c2)nc2ccc(C(=O)O)cc21 [Compound 8f] | – | – | – | – | -0.422 | 0.187 (kcal/mol)/heavy atom | 15 ± 1.3 | 8.3 | 1.8 ± 0.18 | 5.8 ± 0.7 | 3.2 | 225 ± 37 | 125
C#CCO[C@@H]1[C@@H](OCc2nc3ccc(C(=O)OC)cc3n2C)[C@@H](O)[C@@H](CO)O[C@@H]1Sc1ccc(Cl)c(Cl)c1 [Compound 10] | – | n. s. | 275 ± 5 | – | – | – | – | – | – | – | – | – | –
COC(=O)c1ccccc1-n1cc(CO[C@@H]2[C@@H](OCc3nc4ccc(C(=O)O)cc4n3C)[C@@H](O)[C@@H](CO)O[C@@H]2Sc2ccc(Cl)c(Cl)c2)nn1 [Compound 15a] | – | – | – | – | 0.182 | 0.149 (kcal/mol)/heavy atom | 69 ± 9.5 | 19.7 | 3.5 ± 0.37 | 4.7 ± 1 | 1.3 | 355 ± 57 | 101
COC(=O)c1cccc(-n2cc(CO[C@@H]3[C@@H](OCc4nc5ccc(C(=O)O)cc5n4C)[C@@H](O)[C@@H](CO)O[C@@H]3Sc3ccc(Cl)c(Cl)c3)nn2)c1 [Compound 15b] | – | – | – | – | 0.0722 | 0.146 (kcal/mol)/heavy atom | 104 ± 7.4 | 23 | 4.5 ± 0.24 | 22 ± 5.5 | 4.9 | 568 ± 23 | 126
COC(=O)c1ccc(-n2cc(CO[C@@H]3[C@@H](OCc4nc5ccc(C(=O)O)cc5n4C)[C@@H](O)[C@@H](CO)O[C@@H]3Sc3ccc(Cl)c(Cl)c3)nn2)cc1 [Compound 15c] | – | – | – | – | 0.109 | 0.147 (kcal/mol)/heavy atom | 99 ± 3.1 | 24 | 4.1 ± 0.33 | 23 ± 4.9 | 5.6 | 350 ± 60 | 85
COC(=O)c1ccc2nc(CO[C@H]3[C@@H](O)[C@@H](CO)O[C@H](Sc4ccc(Cl)c(Cl)c4)[C@@H]3OCC3CCCCC3)n(C)c2c1 [Compound 18] | n. s. | n. s. | – | – | – | – | – | – | – | – | – | – | –
COC(=O)c1ccc2nc(CO[C@H]3[C@@H](O)[C@@H](CO)O[C@H](Sc4ccc(Cl)c(Cl)c4)[C@@H]3OCC3CC3)n(C)c2c1 [Compound 21] | – | n. s. | > 1500 | – | – | – | – | – | – | – | – | – | –
COC(=O)c1ccc2nc(CO[C@H]3[C@@H](O)[C@@H](CO)O[C@H](Sc4ccc(Cl)c(Cl)c4)[C@@H]3OCC3CCC3)n(C)c2c1 [Compound 24] | n. s. | n. s. | – | – | – | – | – | – | – | – | – | – | –
COC(=O)c1ccc2nc(CO[C@H]3[C@@H](O)[C@@H](CO)O[C@H](Sc4ccc(Cl)c(Cl)c4)[C@@H]3OCC(=O)OC(C)(C)C)n(C)c2c1 [Compound 27] | – | n. s. | 201.7 ± 1.3 | – | – | – | – | – | – | – | – | – | –
COC(=O)c1ccc2nc(CO[C@H]3[C@@H](O)[C@@H](CO)O[C@H](Sc4ccc(Cl)c(Cl)c4)[C@@H]3OCC(=O)O)n(C)c2c1 [Compound 28] | – | – | 7.7 ± 0.3 | 8.5 ± 1.5 | – | – | 44.7 ± 4.9 | – | – | – | – | – | –
COC(=O)c1ccc2nc(CO[C@H]3[C@@H](O)[C@@H](CO)O[C@H](Sc4ccc(Cl)c(Cl)c4)[C@@H]3OC)n(C)c2c1 [Compound 31] | n. s. | – | – | 109 ± 31 | – | – | – | – | – | – | – | – | –
